Common to all, as to test: biochemical
Holding throughout (set-up): Thermo Fisher SelectScreen kinase panel: Z'-LYTE and Adapta activity, LanthaScreen binding
In general terms: TR-FRET usually uses a lanthanide donor and a delayed reading to cut background.

The target in assay [1] is T1, IKK-epsilon (Homo sapiens, UniProt Q14164).
T1 construct: gene IKBKE
As to the method: (§1) 5 88 GNE684 was tested in Thermo Fisher Scientific SelectScreen assay (Madison, WI) 89 against 221 representative kinases at a concentration of 10 µM, which is 476-fold greater than the Ki app 90 for GNE684 against human RIP1 in the RIP1 enzyme 91 assay. The kinase assays were carried out using Z'-LYTE and Adapta activity and 92 LanthaScreen binding assays (Thermo Fisher Scientific, Madison WI) following 93 protocols developed and performed by Thermo Fisher Scientific 94 (https://www.thermofisher.com/us/en/home/products-and-services/services/custom-95 services/screening-and-profiling-services/selectscreen-profiling-service/selectscreen-96 kinase-profiling-service.html). 97 GNE684 was also tested against 468 kinases in the KINOMEscan scanMAX kinase 98 binding assay panel at a concentration of 10 µM following protocols developed and 99 performed by DiscoverX (http://www.discoverx.com/kinase_profiling).

Assay [2] concerns the target T2, TAO2 (Homo sapiens, UniProt Q9UL54).
T2 construct: gene TAOK2
As for the experimental part:
as §1

For assay [3], the target named is DMPK (Homo sapiens, UniProt Q09013). As for the experimental part: as §1
The target of assay [4] is Mink1 (Homo sapiens, UniProt Q8N4C8). As for the experimental part:
as §1

Assay [5] addresses IGF1R (Homo sapiens, UniProt P08069). As for the experimental part: as §1
Assay [6] has as its target MARK1 (Homo sapiens, UniProt Q9P0L2). As to the method: as §1
Assay [7] deals with BMX (Homo sapiens, UniProt P51813). As to the method:
as §1

Assay [8] has as its target SRC (Homo sapiens, UniProt P12931). As to the method:
as §1

Assay [9] addresses T3, DRAK1 (Homo sapiens, UniProt Q9UEE5).
T3 construct: gene STK17A
As to the method: as §1

Assay [10] concerns the target T4, CHK1 (Homo sapiens, UniProt O14757).
T4 construct: gene CHEK1
As to the method:
as §1

Assay [11] has as its target WEE1 (Homo sapiens, UniProt P30291). As for the experimental part:
as §1

Assay [12] has as its target T5, p38-delta (Homo sapiens, UniProt O15264).
T5 construct: gene MAPK13
As to the method: as §1

For assay [13], the target named is T6, RSK3 (Homo sapiens, UniProt Q15349).
T6 construct: gene RPS6KA2
As for the experimental part: as §1

Assay [14] addresses AKT2 (Homo sapiens, UniProt P31751). As to the method: as §1
In assay [15] the target is PAK4 (Homo sapiens, UniProt O96013). As to the method: as §1
Assay [16] addresses T7, IKK-alpha (Homo sapiens, UniProt O15111).
T7 construct: gene CHUK
As for the experimental part: as §1

Assay [17] has as its target T8, RSK1 (Homo sapiens, UniProt Q15418).
T8 construct: gene RPS6KA1
As for the experimental part: as §1

Assay [18] has as its target T9, ARK5 (Homo sapiens, UniProt O60285).
T9 construct: gene NUAK1
As for the experimental part: as §1

The target in assay [19] is T10, CK1_gamma1 (Homo sapiens, UniProt Q9HCP0).
T10 construct: gene CSNK1G1
As to the method: as §1

The target of assay [20] is DYRK3 (Homo sapiens, UniProt O43781). As for the experimental part: as §1
For assay [21], the target named is RET (Homo sapiens, UniProt P07949). As for the experimental part: as §1
Assay [22] has as its target WNK2 (Homo sapiens, UniProt Q9Y3S1). As to the method: as §1
Assay [23] concerns the target T11, TRKB (Homo sapiens, UniProt Q16620).
T11 construct: gene NTRK2
As to the method:
as §1

The values that follow come from PMC7206119, “RIP1 inhibition blocks inflammatory diseases but not tumor growth or metastases” (Cell Death and Differentiation, 2019).

One may read the inhibition as the change of the read-out against control, counted positive when it falls.

T11 sequence (Q16620 whole entry): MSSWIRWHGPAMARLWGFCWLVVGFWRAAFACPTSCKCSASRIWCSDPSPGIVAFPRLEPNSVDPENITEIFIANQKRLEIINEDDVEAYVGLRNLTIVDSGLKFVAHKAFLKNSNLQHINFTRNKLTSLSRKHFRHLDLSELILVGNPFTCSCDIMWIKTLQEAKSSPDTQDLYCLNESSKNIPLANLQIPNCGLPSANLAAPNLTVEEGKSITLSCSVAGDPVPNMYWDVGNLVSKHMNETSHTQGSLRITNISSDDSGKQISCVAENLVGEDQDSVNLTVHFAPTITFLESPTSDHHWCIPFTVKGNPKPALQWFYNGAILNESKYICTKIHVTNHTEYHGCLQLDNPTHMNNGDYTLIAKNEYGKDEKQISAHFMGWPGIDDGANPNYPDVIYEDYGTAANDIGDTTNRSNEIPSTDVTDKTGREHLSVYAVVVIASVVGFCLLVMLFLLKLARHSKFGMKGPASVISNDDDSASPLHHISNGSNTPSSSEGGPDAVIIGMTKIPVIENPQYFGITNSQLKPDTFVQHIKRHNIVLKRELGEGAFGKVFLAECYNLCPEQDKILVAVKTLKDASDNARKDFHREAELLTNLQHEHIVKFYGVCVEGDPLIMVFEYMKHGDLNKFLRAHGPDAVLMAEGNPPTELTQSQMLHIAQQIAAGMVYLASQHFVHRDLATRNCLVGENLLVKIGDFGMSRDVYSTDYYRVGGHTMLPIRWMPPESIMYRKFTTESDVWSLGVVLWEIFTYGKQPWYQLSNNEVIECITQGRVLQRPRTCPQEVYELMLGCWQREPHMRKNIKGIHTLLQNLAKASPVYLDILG
Chain of MARK1 (Q9P0L2 whole entry): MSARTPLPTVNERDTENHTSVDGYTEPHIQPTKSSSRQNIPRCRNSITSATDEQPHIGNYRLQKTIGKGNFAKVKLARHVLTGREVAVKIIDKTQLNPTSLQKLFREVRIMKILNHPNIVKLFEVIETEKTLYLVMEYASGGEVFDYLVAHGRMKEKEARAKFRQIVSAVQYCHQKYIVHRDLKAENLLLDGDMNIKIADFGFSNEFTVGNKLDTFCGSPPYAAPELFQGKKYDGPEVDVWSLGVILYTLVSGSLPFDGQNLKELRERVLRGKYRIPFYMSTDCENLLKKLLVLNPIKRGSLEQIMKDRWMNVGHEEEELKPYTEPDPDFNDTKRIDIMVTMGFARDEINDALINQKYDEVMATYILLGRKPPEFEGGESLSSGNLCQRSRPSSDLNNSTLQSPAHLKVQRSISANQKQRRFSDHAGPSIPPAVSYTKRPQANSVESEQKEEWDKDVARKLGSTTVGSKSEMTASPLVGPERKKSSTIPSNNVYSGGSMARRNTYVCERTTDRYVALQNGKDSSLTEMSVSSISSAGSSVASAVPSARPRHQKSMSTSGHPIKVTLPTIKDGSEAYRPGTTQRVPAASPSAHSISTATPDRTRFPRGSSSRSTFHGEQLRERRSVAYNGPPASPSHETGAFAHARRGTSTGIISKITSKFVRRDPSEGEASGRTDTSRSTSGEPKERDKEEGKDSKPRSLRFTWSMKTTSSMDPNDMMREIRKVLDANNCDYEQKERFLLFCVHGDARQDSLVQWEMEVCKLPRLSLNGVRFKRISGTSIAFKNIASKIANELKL
Chain of WNK2 (Q9Y3S1 whole entry): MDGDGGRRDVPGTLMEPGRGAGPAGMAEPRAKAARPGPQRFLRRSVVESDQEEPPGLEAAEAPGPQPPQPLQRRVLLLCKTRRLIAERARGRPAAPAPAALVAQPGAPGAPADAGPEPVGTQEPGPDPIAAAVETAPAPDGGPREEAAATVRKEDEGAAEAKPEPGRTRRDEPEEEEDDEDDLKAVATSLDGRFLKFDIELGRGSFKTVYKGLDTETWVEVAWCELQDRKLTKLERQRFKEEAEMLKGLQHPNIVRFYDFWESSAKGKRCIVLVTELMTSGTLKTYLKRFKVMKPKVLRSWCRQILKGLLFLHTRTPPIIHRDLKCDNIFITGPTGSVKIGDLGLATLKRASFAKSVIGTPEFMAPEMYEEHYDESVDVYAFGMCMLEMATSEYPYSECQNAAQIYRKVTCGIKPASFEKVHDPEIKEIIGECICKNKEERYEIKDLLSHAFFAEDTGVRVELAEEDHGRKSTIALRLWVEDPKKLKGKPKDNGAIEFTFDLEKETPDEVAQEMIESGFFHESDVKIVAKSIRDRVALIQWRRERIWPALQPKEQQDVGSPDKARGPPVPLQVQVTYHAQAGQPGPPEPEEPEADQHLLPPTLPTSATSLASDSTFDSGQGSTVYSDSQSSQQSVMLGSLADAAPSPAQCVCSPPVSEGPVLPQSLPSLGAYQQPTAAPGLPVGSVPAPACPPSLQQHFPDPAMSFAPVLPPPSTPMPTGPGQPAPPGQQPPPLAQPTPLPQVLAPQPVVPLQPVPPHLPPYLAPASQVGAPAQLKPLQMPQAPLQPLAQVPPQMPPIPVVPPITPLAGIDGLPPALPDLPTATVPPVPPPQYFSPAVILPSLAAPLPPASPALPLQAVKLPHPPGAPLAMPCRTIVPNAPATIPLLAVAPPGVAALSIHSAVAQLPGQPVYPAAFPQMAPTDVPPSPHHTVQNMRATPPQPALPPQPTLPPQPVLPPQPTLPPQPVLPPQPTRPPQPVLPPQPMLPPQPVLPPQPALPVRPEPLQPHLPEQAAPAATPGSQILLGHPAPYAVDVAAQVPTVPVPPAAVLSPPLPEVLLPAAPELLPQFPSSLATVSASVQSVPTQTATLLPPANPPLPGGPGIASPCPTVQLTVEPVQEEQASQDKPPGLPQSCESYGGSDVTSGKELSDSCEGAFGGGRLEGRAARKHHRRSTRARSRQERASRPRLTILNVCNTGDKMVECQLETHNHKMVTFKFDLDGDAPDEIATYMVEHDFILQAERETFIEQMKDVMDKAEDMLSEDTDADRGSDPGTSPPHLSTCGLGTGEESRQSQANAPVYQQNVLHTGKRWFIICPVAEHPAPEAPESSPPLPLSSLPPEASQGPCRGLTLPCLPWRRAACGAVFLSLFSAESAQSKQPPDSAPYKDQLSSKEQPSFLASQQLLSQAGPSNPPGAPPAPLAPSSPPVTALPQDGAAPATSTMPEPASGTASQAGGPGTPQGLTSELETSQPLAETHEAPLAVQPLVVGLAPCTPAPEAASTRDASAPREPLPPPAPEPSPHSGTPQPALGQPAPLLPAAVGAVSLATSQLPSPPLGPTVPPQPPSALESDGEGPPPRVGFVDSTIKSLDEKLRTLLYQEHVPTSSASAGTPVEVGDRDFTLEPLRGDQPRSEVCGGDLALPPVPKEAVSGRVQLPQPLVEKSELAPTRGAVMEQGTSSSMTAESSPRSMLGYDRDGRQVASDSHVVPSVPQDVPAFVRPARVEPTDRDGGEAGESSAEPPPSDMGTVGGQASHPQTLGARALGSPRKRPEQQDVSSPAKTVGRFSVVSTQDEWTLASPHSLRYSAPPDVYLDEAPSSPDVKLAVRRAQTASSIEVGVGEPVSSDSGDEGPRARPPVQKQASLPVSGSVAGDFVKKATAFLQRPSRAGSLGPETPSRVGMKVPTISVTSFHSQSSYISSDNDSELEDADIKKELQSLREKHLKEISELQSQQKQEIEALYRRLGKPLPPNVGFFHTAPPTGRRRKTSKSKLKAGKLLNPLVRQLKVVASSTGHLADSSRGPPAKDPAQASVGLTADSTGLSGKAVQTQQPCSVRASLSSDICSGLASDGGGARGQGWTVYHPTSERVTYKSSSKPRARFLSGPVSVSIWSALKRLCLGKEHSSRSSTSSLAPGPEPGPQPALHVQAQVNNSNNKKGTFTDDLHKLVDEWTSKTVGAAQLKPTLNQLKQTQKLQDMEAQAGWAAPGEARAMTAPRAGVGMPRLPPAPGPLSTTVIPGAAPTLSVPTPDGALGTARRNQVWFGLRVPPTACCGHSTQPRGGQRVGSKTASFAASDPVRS
T4 sequence (O14757 whole entry): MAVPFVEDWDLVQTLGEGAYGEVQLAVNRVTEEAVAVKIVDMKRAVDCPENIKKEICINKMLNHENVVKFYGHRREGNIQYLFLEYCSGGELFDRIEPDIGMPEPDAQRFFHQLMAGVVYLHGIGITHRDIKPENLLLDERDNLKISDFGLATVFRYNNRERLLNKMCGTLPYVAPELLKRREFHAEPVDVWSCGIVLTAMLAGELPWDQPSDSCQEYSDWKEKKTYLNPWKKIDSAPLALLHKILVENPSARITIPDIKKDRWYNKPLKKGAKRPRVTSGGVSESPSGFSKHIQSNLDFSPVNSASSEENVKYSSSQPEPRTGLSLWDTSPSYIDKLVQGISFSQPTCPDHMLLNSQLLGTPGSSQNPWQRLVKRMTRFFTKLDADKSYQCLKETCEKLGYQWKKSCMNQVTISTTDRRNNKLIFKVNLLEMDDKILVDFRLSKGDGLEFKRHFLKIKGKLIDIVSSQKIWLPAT
Chain of PAK4 (O96013 whole entry): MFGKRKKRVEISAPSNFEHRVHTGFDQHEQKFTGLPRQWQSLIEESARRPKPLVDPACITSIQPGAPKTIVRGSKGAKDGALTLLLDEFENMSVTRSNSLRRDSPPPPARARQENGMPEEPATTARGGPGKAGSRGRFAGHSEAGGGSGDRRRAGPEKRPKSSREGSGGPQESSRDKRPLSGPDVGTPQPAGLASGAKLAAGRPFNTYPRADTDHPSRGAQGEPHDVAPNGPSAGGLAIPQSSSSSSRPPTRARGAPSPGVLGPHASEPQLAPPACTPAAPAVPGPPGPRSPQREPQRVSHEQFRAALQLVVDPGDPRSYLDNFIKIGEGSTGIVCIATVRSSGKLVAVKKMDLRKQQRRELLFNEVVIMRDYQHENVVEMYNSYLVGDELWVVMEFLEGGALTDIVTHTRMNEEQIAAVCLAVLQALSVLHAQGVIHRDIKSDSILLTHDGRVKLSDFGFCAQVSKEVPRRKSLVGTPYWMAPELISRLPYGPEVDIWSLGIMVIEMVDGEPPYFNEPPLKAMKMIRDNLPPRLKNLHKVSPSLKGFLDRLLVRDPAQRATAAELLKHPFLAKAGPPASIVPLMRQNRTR

In the case of `COc1cc2c(cn1)N(C)C(=O)[C@@H](NC(=O)c1nc3n(n1)[C@H](c1ccccc1)CC3)CC2` [GNE684, (S)-N-((S)-7-methoxy-1-methyl-2-oxo-2,3,4,5-tetrahydro-1H-pyrido[3,4-b]azepin-3-yl)-5-phenyl-6,7-dihydro-5H-pyrrolo[1,2-b][1,2,4]triazole-2-carboxamide], the inhibition at 10 µM in assay [1] is 3%; in [2], 1%; in [3], -3%; in assay [4], 18.5%; in assay [5] it was 5%; in assay [6], 6.5%. For the same molecule, the inhibition at 10 µM is 4.5% in [7]; -1% in assay [8]; 0.5% in [9]; -7% in assay [10]; 0.5% in assay [11]; 3.5% in assay [12]. The inhibition at 10 µM in assay [13] was 6%; in assay [14] it was 4.5%; in assay [15], 14%; in [16], -3%; in assay [17] it was 4.5%; in assay [18] it was -6.5%. Also, the inhibition at 10 µM is 4% in assay [19]; 2% in assay [20]; 4% in [21]; -8.5% in [22]; -5% in assay [23].
